Values of other authors as cited in patent US20260256792A1, “TREATMENT OF CHRONIC SPONTANEOUS URTICARIA BY ADMINISTERING (R)-2-[3-[4-AMINO-3-(2-FLUORO-4-PHENOXY-PHENYL)PYRAZOLO[3,4-D]PYRIMIDIN-1-YL]PIPERIDINE-1-CARBONYL]-4-METHYL-4-[4-(OXETAN-3-YL)PIPERAZIN-1-YL]PENT-2-ENENITRILE” (priority 2023, published 2026).

Test system: fetal development or male fertility
Details: preclinical; cited from earlier work

CC(C)(C=C(C#N)C(=O)N1CCC[C@@H](n2nc(-c3ccc(Oc4ccccc4)cc3F)c3c(N)ncnc32)C1)N1CCN(C2COC2)CC1 [rilzabrutinib, (R)-2-[3-[4-amino-3-(2-fluoro-4-phenoxy-phenyl)pyrazolo[3,4-d]pyrimidin-1-yl]piperidine-1-carbonyl]-4-methyl-4-[4-(oxetan-3-yl)piperazin-1-yl]pent-2-enenitrile]
reproductive toxicity: not expected to harm fetal development or male fertility
